13 compounds from BindingDB's records for doi:10.1016/j.chembiol.2006.05.015 (The Scripps Research Institute, 2006) can be followed below.

Assay [1] addresses T1, Tyrosine-protein kinase ABL1 [1-999,Q252H] (Homo sapiens, UniProt P00519, Q252H).
T1 construct: 1-999
Description: Biochemcial Assay. To be noted: pH 7.5. An excerpt: An in vitro kinase assay using phosphorylated recombinant human Abl kinase domains to phosphorylate a peptide substrate.

The target of assay [2] is T1, Tyrosine-protein kinase ABL1 [1-999,Q252H]. Description: Biochemcial Assay. The note with it: pH 7.5. The source says:
An in vitro kinase assay using dephophorylated conformationally inactive Abl kinase was obtained by treating pure recombinant Abl with Yersinia […] phosphatase from Calbiochem.
This is another data set of the same source.

Some results are limits rather than exact numbers.

Consider `Cc1ccc(Cl)cc1Nc1nccc(-c2cccnc2)n1` [Type I progenitor, 1], for which the IC50 in assay [1] and in assay [2] was above 5000 nM each time.
On to `O=[N+]([O-])c1ccc(Oc2ncnc3[nH]ccc23)cc1` [Type I progenitor, 4], for which the concentration for half-maximal inhibition (IC50) in assay [1] and in assay [2] was above 5000 nM in each case.
With `O=C(Nc1ccc(N2CCOCC2)cc1)c1cc2cnc3[nH]ccc3c2s1` [Type I progenitor, 7], the IC50 in assay [1] and in assay [2] was above 5000 nM throughout.
Turning to `CC(O)c1cccc(Nc2ncc3cc(-c4c(Cl)cccc4Cl)c(=O)n(C)c3n2)c1` (stereo unspecified) [Type I progenitor, 11], the 50% inhibitory concentration (IC50) in assay [1] came to 5.7 nM; in assay [2], 5.8 nM.
For the compound `Cc1ccc(NC(=O)c2cccc(C(F)(F)F)c2)cc1Nc1nccc(-c2cccnc2)n1` [Type II inhibitor, 2], the IC50 in assay [1] was determined as 152 nM; in assay [2], 5 nM.
On to `Cc1ccc(N(C)C(=O)c2cccc(C(F)(F)F)c2)cc1Nc1nccc(-c2cccnc2)n1` [Type II inhibitor, 3], for which the IC50 in assay [1] was above 5000 nM; in assay [2] it was 1360 nM.
As for `O=C(Nc1ccc(Oc2ncnc3[nH]ccc23)cc1)Nc1cccc(C(F)(F)F)c1` [Type II inhibitor, 5], the figures for the IC50 in assay [1] and in assay [2] were above 5000 nM and 374 nM, respectively.
Take `O=C(Cc1cccc(C(F)(F)F)c1)Nc1ccc(Oc2ncnc3[nH]ccc23)cc1` [Type II inhibitor, 6]: the IC50 in assay [1] and in assay [2] was above 5000 nM each time.
Consider `Cc1cc(NC(=O)c2cccc(C(F)(F)F)c2)ccc1NC(=O)c1cc2cnc3[nH]ccc3c2s1` [Type II inhibitor, 8], for which the figures for the IC50 in assay [1] and in assay [2] were above 5000 nM and 154 nM, respectively.
In the case of `Cc1cc(N(C)C(=O)c2cccc(C(F)(F)F)c2)ccc1NC(=O)c1cc2cnc3[nH]ccc3c2s1` [Type II inhibitor, 10], the IC50 in assay [1] and in assay [2] was above 5000 nM in each case.
Turning to `CC(O)c1cccc(Nc2ncc3cc(-c4cc(NC(=O)c5cccc(C(F)(F)F)c5)ccc4Cl)c(=O)n(C)c3n2)c1` (stereo unspecified) [Type II inhibitor, 12], the IC50 in assay [1] was 19.6 nM; in assay [2], 27.2 nM.
For `CC(O)c1cccc(Nc2ncc3cc(-c4cc(N(C)C(=O)c5cccc(C(F)(F)F)c5)ccc4Cl)c(=O)n(C)c3n2)c1` (stereo unspecified) [Type II inhibitor, 13], in that order: 150 nM and 9.1 nM.
For the compound `Cc1ccc(N(C)C(=O)c2cccc(C(F)(F)F)c2)cc1N1Cc2cnc(N)nc2N(C)C1=O` [Type II inhibitor, 15], the IC50 in assay [1] and in assay [2] was above 5000 nM in each case.

The term IC50 denotes the concentration needed to halve the response being measured. Higher therefore signals lower potency.
